From ChEMBL document CHEMBL1201862, “PubChem BioAssay data set” (2004) come the findings set out here.

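Cells were grown in 96-well plates and exposed to each compound for 48 hours at five concentrations; endpoints were interpolated linearly between bracketing concentrations, or set to the highest concentration if not reached. The concentration for 50% growth inhibition is given as GI50.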 Activity calls are given as the source filed them. No stated cut-off is given here; in the data, active = GI50 up to about 1.1 µM and inactive = higher. Some results are limits rather than exact numbers.

Test systems include A498; COLO 205; HCC 2998; HL-60; IGROV-1; LOX IMVI; M14; MCF7; MDA-MB-435; MDA-N; MOLT-4; Malme-3M; NCI-H23; NCI-H460; RPMI-8226; SK-MEL-28; SK-MEL-5; SNB-19; SW-620; UACC-62.
Holding throughout (test): NCI-60 cell line screen, 48 h

As for `c1ccc2[nH]c3nc4ccccc4c-3cc2c1`, the GI50 in the test with A498 is 3.33 µM (inactive); with COLO 205, 0.207 µM (active); with HCC 2998, 0.757 µM (active); with HL-60, 0.192 µM (active); in the test with IGROV-1, 0.286 µM (active); with LOX IMVI, 0.18 µM (active). The GI50 in the test with M14 is 0.536 µM (active); in the test with MCF7, 0.304 µM (active); in the test with MDA-MB-435, 0.54 µM (active); in the test with MDA-N, 0.641 µM (active); in the test with MOLT-4, 0.0942 µM (active); with Malme-3M it was 0.92 µM (active). The GI50 in the test with NCI-H23 is 0.615 µM (active); with NCI-H460, 0.128 µM (active); in the test on RPMI-8226, 0.327 µM (active); in the test on SK-MEL-28, 1.31 µM (inactive); in the test with SK-MEL-5, 0.698 µM (active); in the test with SNB-19, 0.785 µM (active). In addition, the GI50 in the test on SW-620 is 0.156 µM (active); in the test with UACC-62, 0.632 µM (active).
On to `COc1ccc(/C=C2\C[C@H]3[C@@H]4CC=C5C[C@@H](OC(C)=O)CC[C@]5(C)[C@H]4CC[C@]3(C)\C2=N\O)cc1OC`, for which the GI50 with A498 was 19.3 µM (inactive); with COLO 205, 8.77 µM (inactive); with HCC 2998, 16.2 µM (inactive); in the test on HL-60, 5.57 µM (inactive); with IGROV-1, 53.3 µM (inactive); with LOX IMVI, 13.3 µM (inactive). In addition, the GI50 with M14 was 14.7 µM (inactive); with MCF7, 6.3 µM (inactive); with MDA-MB-435 it was 20.7 µM (inactive); in the test with MDA-N, 10.4 µM (inactive); in the test on MOLT-4, 3.6 µM (inactive); in the test on Malme-3M, 53 µM (inactive). Besides, the GI50 in the test on NCI-H23 was 29.2 µM (inactive); with NCI-H460 it was 7.03 µM (inactive); in the test on RPMI-8226, 4.86 µM (inactive); in the test on SK-MEL-28 it was > 100 µM (inactive); with SK-MEL-5, 2.71 µM (inactive); with SNB-19 it was 25 µM (inactive). Also, the GI50 is 84.9 µM (inactive) with SW-620 and 30.5 µM (inactive) with UACC-62.
`COC1(OC)CCN(Cc2ccccc2)C1=O`: the GI50 was 17.5 µM (inactive) in the test on A498; 4.54 µM (inactive) in the test with COLO 205; 18.2 µM (inactive) in the test on HCC 2998; 1.69 µM (inactive) in the test on HL-60; 13.9 µM (inactive) with IGROV-1; 5.45 µM (inactive) with LOX IMVI. Also, the GI50 is 10.4 µM (inactive) with M14; 4.39 µM (inactive) in the test on MCF7; 15.6 µM (inactive) in the test with MDA-MB-435; 10.7 µM (inactive) in the test with MDA-N; 2.55 µM (inactive) in the test with MOLT-4; > 100 µM (inactive) in the test on Malme-3M. Further, the GI50 in the test with NCI-H23 is 20 µM (inactive); with NCI-H460, 18.7 µM (inactive); in the test on RPMI-8226, 6.32 µM (inactive); with SK-MEL-28 it was 9.62 µM (inactive); with SK-MEL-5 it was 15.3 µM (inactive); in the test with SNB-19 it was 17.8 µM (inactive). Also, the GI50 in the test on SW-620 is 2.86 µM (inactive); in the test on UACC-62, 10.9 µM (inactive).
For the compound `COC(=O)[C@@H]1C=C[C@H](OC2OC(COC(C)=O)C(OC(C)=O)C(OC(C)=O)C2OC(C)=O)n2c(=O)c3ccccc3c(=O)n21` (some centres undefined), the GI50 is 12.2 µM (inactive) in the test with A498; 8.65 µM (inactive) with COLO 205; 16.1 µM (inactive) in the test on HCC 2998; 3.95 µM (inactive) in the test with HL-60; 18.2 µM (inactive) in the test on IGROV-1; 10.9 µM (inactive) with LOX IMVI. In addition, the GI50 in the test on M14 was 15.3 µM (inactive); with MCF7, 8.61 µM (inactive); in the test with MDA-MB-435, 9.16 µM (inactive); in the test with MDA-N, > 10 µM (inactive); in the test with MOLT-4 it was 11.8 µM (inactive); with Malme-3M it was 16.9 µM (inactive). Also, the GI50 is 18.6 µM (inactive) with NCI-H23; 12.3 µM (inactive) in the test on NCI-H460; 4.66 µM (inactive) in the test on RPMI-8226; 13.2 µM (inactive) in the test with SK-MEL-28; 14.7 µM (inactive) in the test with SK-MEL-5; 19.4 µM (inactive) in the test on SNB-19. The GI50 is 12.4 µM (inactive) in the test with SW-620 and 9.93 µM (inactive) in the test with UACC-62.
In the case of `CN1N=C(c2ccncc2)OC1c1ccc(Cl)c(Cl)c1` (centres undefined), the GI50 is 82 µM (inactive) with A498; > 100 µM (inactive) in the test with COLO 205; > 100 µM (inactive) in the test with HCC 2998; 69.8 µM (inactive) in the test with HL-60; > 100 µM (inactive) in the test on IGROV-1; > 100 µM (inactive) in the test on LOX IMVI. The GI50 is > 100 µM (inactive) in the test with M14; > 100 µM (inactive) in the test with MCF7; > 100 µM (inactive) with MDA-MB-435; > 100 µM (inactive) in the test with MDA-N; 44.5 µM (inactive) in the test with MOLT-4; > 100 µM (inactive) in the test with Malme-3M. Moreover, the GI50 in the test with NCI-H23, with NCI-H460, in the test with RPMI-8226, in the test with SK-MEL-28, in the test with SK-MEL-5 and in the test with SNB-19 was > 100 µM (inactive) in each case. In addition, the GI50 with SW-620 and in the test on UACC-62 was > 100 µM (inactive) each time.
As to `CN(C)/C=N/n1c2ccccc2c2ccccc21`, the GI50 is 26.4 µM (inactive) in the test on A498; 83.6 µM (inactive) with COLO 205; > 100 µM (inactive) in the test with HCC 2998; > 100 µM (inactive) in the test with HL-60; > 100 µM (inactive) in the test on IGROV-1; > 100 µM (inactive) in the test with LOX IMVI. Moreover, the GI50 with M14 was > 100 µM (inactive); with MCF7, > 100 µM (inactive); in the test with MDA-MB-435, > 100 µM (inactive); in the test on MDA-N, > 100 µM (inactive); in the test with MOLT-4 it was 69.8 µM (inactive); in the test on Malme-3M, 50.1 µM (inactive). For the same compound, the GI50 with NCI-H23, in the test with NCI-H460, with RPMI-8226, in the test on SK-MEL-28, with SK-MEL-5 and in the test with SNB-19 was > 100 µM (inactive) each time. In addition, the GI50 in the test on SW-620 and in the test with UACC-62 was > 100 µM (inactive) each time.
Turning to `COc1ccc(CNc2nc(NCc3ccc(OC)cc3)nc(NC3CCCCC3)n2)cc1`, the GI50 was 48.6 µM (inactive) in the test with A498; 1.94 µM (inactive) in the test with COLO 205; 1.11 µM (active) with HCC 2998; 4.34 µM (inactive) in the test on HL-60; 2.09 µM (inactive) in the test with IGROV-1; 3.13 µM (inactive) with LOX IMVI. Moreover, the GI50 is 2.15 µM (inactive) in the test on M14; 0.112 µM (active) in the test on MCF7; 0.472 µM (active) with MDA-MB-435; 0.65 µM (active) in the test with MDA-N; > 100 µM (inactive) with MOLT-4; 0.225 µM (active) in the test with Malme-3M. Moreover, the GI50 in the test on NCI-H460 was 2.7 µM (inactive); in the test on RPMI-8226, 3.21 µM (inactive); in the test with SK-MEL-28, > 100 µM (inactive); in the test with SK-MEL-5 it was 3.56 µM (inactive); with SNB-19 it was 2.07 µM (inactive); with SW-620, 3.56 µM (inactive). For the same compound, the GI50 in the test with UACC-62 is 2 µM (inactive).
As to `c1ccc2c(c1)c(N1CCCCC1)cc1nc3c(cc(N4CCCCC4)c4ccccc43)nc12`, the GI50 with A498, with COLO 205, in the test on HCC 2998, in the test with HL-60, in the test with IGROV-1 and in the test with LOX IMVI was > 100 µM (inactive) each time. The GI50 in the test on M14, in the test on MCF7, in the test on MDA-MB-435, in the test on MDA-N, in the test with MOLT-4 and in the test with Malme-3M was > 100 µM (inactive) each time. Moreover, the GI50 with NCI-H23, with NCI-H460, in the test with RPMI-8226, in the test on SK-MEL-28, with SK-MEL-5 and with SNB-19 was > 100 µM (inactive) throughout. Further, the GI50 in the test on SW-620 and in the test with UACC-62 was > 100 µM (inactive) each time.
As to `C=C(C)C(=O)OC1C[C@H](COC(C)=O)C2CC=C(C)C2C2OC(=O)C(=C)[C@H]12` (some centres undefined), the GI50 in the test with A498 is 14.3 µM (inactive); in the test on COLO 205, 2.54 µM (inactive); with HCC 2998, 12.2 µM (inactive); in the test with HL-60 it was 0.815 µM (active); in the test on IGROV-1, 11.7 µM (inactive); with LOX IMVI, 1.85 µM (inactive). For the same compound, the GI50 in the test on M14 was 2.07 µM (inactive); in the test with MCF7 it was 4.11 µM (inactive); with MDA-MB-435, 3.33 µM (inactive); in the test with MDA-N, 3.66 µM (inactive); in the test on MOLT-4 it was 1.72 µM (inactive); in the test on Malme-3M, 1.55 µM (inactive). Further, the GI50 with NCI-H23 was 4.26 µM (inactive); with NCI-H460, 15 µM (inactive); in the test on RPMI-8226, 0.525 µM (active); in the test on SK-MEL-28 it was 2.41 µM (inactive); with SK-MEL-5, 7.5 µM (inactive); in the test on SNB-19, 16.9 µM (inactive). Further, the GI50 was 2.23 µM (inactive) with SW-620 and 4.54 µM (inactive) in the test with UACC-62.
For `O=C(/C=C/c1ccccc1)CCN1CCOCC1`, the GI50 is 19 µM (inactive) in the test on A498; 8.3 µM (inactive) in the test with COLO 205; 20 µM (inactive) in the test on HCC 2998; 2.12 µM (inactive) in the test on HL-60; 15.7 µM (inactive) in the test with IGROV-1; 10.9 µM (inactive) with LOX IMVI. Further, the GI50 in the test with M14 is 14.8 µM (inactive); in the test with MCF7 it was 4.99 µM (inactive); in the test with MDA-MB-435, 15 µM (inactive); in the test with MDA-N, 14.2 µM (inactive); with MOLT-4, 4.28 µM (inactive); in the test with Malme-3M, 18.6 µM (inactive). The GI50 in the test with NCI-H23 was 16.2 µM (inactive); in the test on NCI-H460, 17.8 µM (inactive); in the test with RPMI-8226 it was 1.56 µM (inactive); with SK-MEL-28, 11.4 µM (inactive); with SK-MEL-5, 17.5 µM (inactive); in the test on SNB-19, 23.8 µM (inactive). The GI50 in the test with SW-620 is 5.48 µM (inactive); in the test on UACC-62 it was 16 µM (inactive).
